In brackets after ≈: the same amount, converted by molar mass.
Experiment: Solubility in isotonic phosphate buffer containing PEG 400
Format: physicochemical
Protocol: For use of clotrimazole, solubility in phosphate buffer is an issue and therefore, 20% and 40% PEG 400 are added to the phosphate buffer and the solubility is determined.

Clc1ccccc1C(c1ccccc1)(c1ccccc1)n1ccnc1 [clotrimazole, Clotrimazole]
solubility (organic solvent or mixture, isotonic phosphate buffer (pH 6.8) containing 20% PEG 400): ~60 µg/mL (≈ 174 µM) | solubility (pH 6.8, organic solvent or mixture, phosphate buffer containing 40% PEG 400): ~430 µg/mL (≈ 1250 µM)
